Measurements as given in patent US8148097B2, “Screening method for identification of compounds with calcium-independent phospholipase A2β (iPLA2β) modulating activity” (Washington University, priority 2005, dated 2012).
Values belong to the compound of their own block, whether it stands above or below them.

How the values were obtained:
[1] = molecular target: T1, iPLA2β (Cricetulus griseus, UniProt A0A3L7I2I8); experiment: Cardiolipin and phospholipid hydrolysis catalyzed by iPLA2β and inhibition by BEL; assay type: biochemical; conditions: iPLA2b + BEL 10 μM, 20 min 37° C.
T1 construct: (His)6; made in house; host or cells: Sf9 insect cells (baculovirus)
T1 sequence (A0A3L7I2I8 1-752 isoform A0A3L7I2I8-2): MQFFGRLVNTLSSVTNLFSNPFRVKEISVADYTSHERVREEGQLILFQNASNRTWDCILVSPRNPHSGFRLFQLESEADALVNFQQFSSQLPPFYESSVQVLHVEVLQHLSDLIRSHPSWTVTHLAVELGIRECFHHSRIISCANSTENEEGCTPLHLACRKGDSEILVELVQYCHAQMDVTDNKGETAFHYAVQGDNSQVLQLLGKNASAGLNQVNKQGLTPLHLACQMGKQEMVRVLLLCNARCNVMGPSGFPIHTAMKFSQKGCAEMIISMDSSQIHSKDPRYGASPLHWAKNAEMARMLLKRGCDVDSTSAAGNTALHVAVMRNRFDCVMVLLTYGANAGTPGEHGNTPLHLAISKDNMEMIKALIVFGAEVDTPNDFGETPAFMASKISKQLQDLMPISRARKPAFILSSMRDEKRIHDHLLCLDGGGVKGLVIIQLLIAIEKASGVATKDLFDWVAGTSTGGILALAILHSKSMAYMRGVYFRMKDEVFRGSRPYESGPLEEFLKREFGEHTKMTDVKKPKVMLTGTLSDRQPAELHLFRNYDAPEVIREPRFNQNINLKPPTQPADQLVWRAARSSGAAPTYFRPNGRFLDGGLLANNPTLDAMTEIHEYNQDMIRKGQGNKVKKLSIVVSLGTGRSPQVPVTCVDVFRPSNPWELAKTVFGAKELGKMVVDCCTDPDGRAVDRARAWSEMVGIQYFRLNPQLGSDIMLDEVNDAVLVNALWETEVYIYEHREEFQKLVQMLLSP
Method: (§1) Purified calcium-independent phospholipase A2 (iPLA2β) and calcium-independent phospholipase A2γ were incubated with vesicles containing 10% cardiolipin (tetra 18:1) for 20 min at 37° C.

[2] = molecular target: T2, iPLA2γ (Homo sapiens, UniProt Q9NP80); experiment: Cardiolipin and phospholipid hydrolysis catalyzed by iPLA2γ and inhibition by BEL; assay type: biochemical; conditions: iPLA2g + BEL 10 μM, 20 min 37° C.
T2 sequence (Q9NP80 1-782): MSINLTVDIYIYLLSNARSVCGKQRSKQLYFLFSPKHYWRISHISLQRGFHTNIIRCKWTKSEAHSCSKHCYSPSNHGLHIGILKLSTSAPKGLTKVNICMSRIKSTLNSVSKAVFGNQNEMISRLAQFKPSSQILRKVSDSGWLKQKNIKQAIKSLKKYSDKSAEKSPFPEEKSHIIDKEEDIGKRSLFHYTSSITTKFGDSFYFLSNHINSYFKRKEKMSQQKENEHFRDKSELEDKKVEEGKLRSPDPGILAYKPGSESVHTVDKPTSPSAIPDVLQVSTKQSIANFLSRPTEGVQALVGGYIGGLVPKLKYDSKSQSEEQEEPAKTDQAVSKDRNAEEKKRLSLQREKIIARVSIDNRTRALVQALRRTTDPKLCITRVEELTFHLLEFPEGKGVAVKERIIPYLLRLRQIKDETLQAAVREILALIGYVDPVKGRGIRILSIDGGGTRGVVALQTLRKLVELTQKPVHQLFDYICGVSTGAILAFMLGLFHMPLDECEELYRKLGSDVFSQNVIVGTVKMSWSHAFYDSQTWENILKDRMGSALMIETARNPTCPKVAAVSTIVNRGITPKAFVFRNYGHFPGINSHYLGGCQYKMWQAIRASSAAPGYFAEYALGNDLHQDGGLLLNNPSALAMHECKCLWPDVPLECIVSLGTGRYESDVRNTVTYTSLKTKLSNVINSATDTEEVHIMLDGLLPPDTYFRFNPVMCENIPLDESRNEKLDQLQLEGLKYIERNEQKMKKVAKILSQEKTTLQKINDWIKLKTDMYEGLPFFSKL
Method: as §1

[3] = molecular target: T1, iPLA2β; experiment: Covalent acylation (autoacylation) of iPLA2β with [14C]-long chain acyl-CoAs; assay type: biochemical; conditions: for effect of pretreatment on radiolabeling of iPLA2β with [1-14C]-oleoyl-CoA: 5 mM, 5 min at 30° C. pretreatment, FIG. 7
Method: FIG. 5—Equivalent amounts of the indicated [1-^14C]-acyl-CoA guests (5 mol %) were incorporated into host POPC (100 μM) vesicles and incubated for 1 hr at 37° C. with equal amounts of either wild-type (WT) iPLA2β(His)6 (peptide disclosed as SEQ ID NO: 4), S465A iPLA2β(His)6 (peptide disclosed as SEQ ID NO: 4), or BEL-pretreated WT iPLA2β(His)6 (peptide disclosed as SEQ ID NO: 4) enzyme as described in Experimental Procedures. Samples were resolved by SDS-PAGE (10% gel), fixed, and dried before visualization by autoradiography.
FIG. 6—Purified iPLA2β(His)6 (peptide disclosed as SEQ ID NO: 4) (2 μM) was incubated with the indicated concentrations of [1-^14C]-oleoyl-CoA present as guest in host POPC (100 μM) vesicles for 1 hr at 37° C. Samples were electrophoresed in parallel with standard amounts (0.5-10 nCi) of [^14C]-BSA of known activity (not shown). The fixed and dried gel was exposed to film and the resultant signals from the [^14C]-BSA were utilized to generate a standard curve utilizing ID software from a Kodak Imagestation to determine the incorporation of [1-^14C]-oleate into iPLA2β.
FIG. 7—Purified iPLA2β(His)6 (peptide disclosed as SEQ ID NO: 4) was incubated with [1-^14C]-oleoyl CoA (10 mol %) incorporated as guest in host POPC vesicles. N-ethylmaleimide and iodoacetamide samples were pretreated with 5 mM of either reagent for 5 min at 30° C. before addition of [1-^14C]-oleoyl-CoA. Samples were incubated with 1 N HCl, 1 N NaOH, or 2 N neutral hydroxylamine for 1 hr at 30° C. as indicated. All samples, except lane 1, were precipitated with CHCl3/MeOH and washed with 70% acetone before SDS-PAGE and autoradiography as described in Experimental Procedures.
FIG. 10—Purified iPLA2β(His)6 (peptide disclosed as SEQ ID NO: 4) was incubated with [1-^14C]-oleoyl CoA (10 mol %) incorporated as guest in host POPC vesicles in the presence of EGTA (5 mM), Ca^2+ (1 mM), CaM (3 μg), or Ca^2+-CaM for 1 h at 37° C. Samples were resolved by SDS-PAGE and the gel was soaked in Amplify fluorographic reagent, dried, and exposed to film as described in Experimental Procedures.
Covalent Modification of […] with [^14C]-long chain Acyl CoAs—Purified recombinant iPLA2β(His)6 (peptide disclosed as SEQ ID NO: 4) was incubated with POPC vesicles containing 10 mol % [1-^14C]-acyl-CoA for 1 h at 37° C. […] Chloroform/methanol precipitation of some samples was performed as described (66) utilizing 15 μg of bovine serum albumin as carrier. In tests to examine the nature of the covalent linkage between oleic acid and iPLA2β, acid (HCl), base (NaOH), and hydroxylamine were added to the indicated concentrations and the samples were incubated at 30° C. for 1 h. Bovine serum albumin (15 μg) and SDS-PAGE loading buffer were then added to each sample prior to dialysis against 50 mM Tris-HCl, pH 6.8 containing 10% glycerol and 1% SDS for 4 h. Samples were electrophoresed by SDS-PAGE, fixed (40% methanol containing 10% acetic acid), stained with Coomassie Blue R-250, incubated in Amplify fluorographic reagent, dried, and exposed to Kodak Biomax MR film for 2-5 days at −80° C.

[4] = molecular target: T2, iPLA2γ; conditions: racemic BEL, previous work; read-out: IC50, iPLA2γ phospholipase A2 activity; cited from earlier work
[5] = molecular target: T1, iPLA2β; experiment: iPLA2β palmitoyl-CoA thioesterase (hydrolase) activity, palmitoyl-CoA guest in host vesicles; assay type: biochemical; conditions: pre-incubated with purified iPLA2β(His)6; palmitoyl-CoA guest in POPC/DOPS host bilayers; read-out: IC50, iPLA2β palm-CoA hydrolase activity
Method: The enzyme was then added to 100 mM Tris-HCl, pH 7.2 containing 1 mM EGTA and [1-^14C]-palmitoyl-CoA guest (5 mol %) in POPC (100 μM) host vesicles for 2 min at 37° C. Following extraction into butanol, liberated [1-^14C]-palmitic acid was separated from [1-^14C]-palmitoyl-CoA by TLC and quantified by liquid scintillation spectrometry as described in Experimental Procedures.
FIG. 9—Calcium-independent iPLA2β was pre-incubated in the presence of Ca^2+ (1 mM) or Ca^2+-CaM (3 μg) on ice before addition to 95 μM POPC containing either 5 mol % [1-^14C]-POPC or [1-^14C]-palmitoyl-CoA in 100 mM Tris-HCl, pH 7.2. After incubation at 37° C. for 3 min, reactions were terminated by vortexing in the presence of butanol and released radiolabeled fatty acids were resolved by TLC and quantitated by liquid scintillation spectrometry as described in Experimental Procedures.
Phospholipase A2 and Acyl-CoA Hydrolase Enzymatic Assays—Purified recombinant iPLA2β(His)6 (peptide disclosed as SEQ ID NO: 4) (0.1-1 μg) was incubated with radiolabeled phospholipid or acyl-CoA in 25 mM Tris-HCl, pH 7.2 containing 1 mM EGTA (200 μl final volume) for 1-2 mm at 37° C. […] Incorporation of acyl-CoA into the POPC/DOPS vesicles employed was determined as described previously (64). […]

[6] = molecular target: T1, iPLA2β; experiment: iPLA2β-catalyzed acyl-CoA hydrolysis (substrate rate and selectivity); assay type: biochemical
Method: Reactions were terminated by vortexing with butanol and [1-^14C]-palmitic acid extracted into the butanol layer was resolved by TLC and quantified by liquid scintillation spectrometry as described in Experimental Procedures. B, iPLA2β catalyzed hydrolysis of palmitoyl-CoA guest in host POPC/DOPS vesicles. The indicated mol % of [^14C]-palmitoyl-CoA were incorporated into POPC/DOPS (90:10) vesicles (100 μM final vesicle lipid concentration). Each data point represents the average±S.E. for at least 4 separate determinations.
Released [1-^14C]-fatty acid was extracted into butanol by vortexing, resolved by TLC, and quantified by liquid scintillation spectrometry as described in Experimental Procedures. Each data point represents the average ±SE. from 8 separate determinations.
In tests using acyl-CoAs as guests in host phospholipid bilayers, radiolabeled acyl-CoAs were incorporated into POPC/DOPS (90:10 mol %) vesicles before addition to the reaction mix. […] Incorporation of acyl-CoA into the POPC/DOPS vesicles employed was determined as described previously (64). Reactions were terminated by extraction of the released radiolabeled fatty acids into 100 μl butanol, separation of fatty acids from unreacted substrate by thin layer chromatography, and quantitation by scintillation spectroscopy as previous described (65). […]

[7] = PAPC vesicles with 10 mol % tetra-18:1 CL

16:0 FA [1]: 0.96 nmol/reaction
18:1 FA [1]: 0.61 nmol/reaction
20:4 FA [1]: 0.50 nmol/reaction
Di-18:1 LysoCL [1]: 0.15 nmol/reaction
Tri-18:1 LysoCL [1]: 0.10 nmol/reaction
Tetra-18:1 CL [1, 7]: 1.95 nmol/reaction
16:0 FA [2]: 3.07 nmol/reaction
18:1 FA [2]: 0.54 nmol/reaction
20:4 FA [2]: 0.54 nmol/reaction
Di-18:1 LysoCL [2]: 0.12 nmol/reaction
Tri-18:1 LysoCL [2]: 0.14 nmol/reaction
Tetra-18:1 CL [2, 7]: 2.18 nmol/reaction
effect of BEL pretreatment on iPLA2β acylation with palmitoyl-CoA and stearoyl-CoA ([3]; BEL-pretreated iPLA2β, FIG. 5): marked increases in acylation
SMILES: O=C1O/C(=C/Br)CCC1c1cccc2ccccc12 (racemic) [BEL, (E)-6-(bromomethylene)-3-(1-naphthalenyl)-2H-tetrahydropyran-2-one]
IC50 [4]: ~3000 nM

inhibition of iPLA2β by high concentrations of CoASH [6]: not inhibited
SMILES: CC(C)(COP(=O)(O)OP(=O)(O)OC[C@H]1O[C@@H](n2cnc3c(N)ncnc32)[C@H](O)[C@@H]1OP(=O)(O)O)[C@@H](O)C(=O)NCCC(=O)NCCS [CoASH]

signal intensity of iPLA2β acylation, fold less than with [1-14C]-oleoyl-CoA ([3]; wild-type iPLA2β, FIG. 5): ≈ 25 fold
SMILES: CCCCC/C=C\C/C=C\C/C=C\C/C=C\CCC[14C](=O)SCCNC(=O)CCNC(=O)[C@H](O)C(C)(C)COP(=O)(O)OP(=O)(O)OC[C@H]1O[C@@H](n2cnc3c(N)ncnc32)[C@H](O)[C@@H]1OP(=O)(O)O [[1-^14C]-arachidonoyl-CoA]

More lines, now with the values behind:

SMILES: O=C1O/C(=C/Br)CC[C@@H]1c1cccc2ccccc12 [(R)-BEL]
IC50 [5]: 800 nM

SMILES: O=C1O/C(=C/Br)CC[C@H]1c1cccc2ccccc12 [(S)-BEL]
IC50 [5]: ~100 nM

SMILES: CCN1C(=O)C=CC1=O [N-ethylmaleimide]
effect of pretreatment on radiolabeling of iPLA2β with [1-14C]-oleoyl-CoA [3]: decreased radiolabeling

SMILES: NC(=O)CI [iodoacetamide]
effect of pretreatment on radiolabeling of iPLA2β with [1-14C]-oleoyl-CoA [3]: decreased radiolabeling

SMILES: CCCCCCCCCCCCCCCC(=O)SCCNC(=O)CCNC(=O)[C@H](O)C(C)(C)COP(=O)(O)OP(=O)(O)OC[C@H]1O[C@@H](n2cnc3c(N)ncnc32)[C@H](O)[C@@H]1OP(=O)(O)O [palmitoyl-CoA]
maximal rate of palmitoyl-CoA thioesterase activity catalyzed by iPLA2β ([6]; at 2.5 μM palmitoyl-CoA, FIG. 1A): ≈ 250 nmol palmitic acid×min^−1×mg^−1 protein
